Reference: US11673899B2, “Crystal form of thieno[2,3-c]pyridazine-4(1H)-one compound, preparation method therefor and use thereof” (ZHANGZHOU PIEN TZE HUANG PHARMACEUTICAL CO., LTD., priority 2019, dated 2023)

Assays:
[1] = Stability of crystal form to light, heat and humidity; type: physicochemical; details: solid crystal form
[2] = test system: HFD+CCl4-induced NASH mouse model; experiment: In vivo pharmacodynamic study in HFD+CCl4-induced NASH mouse model; details: HFD+CCl4 mice; 0.5, 1, 3 mg/kg by gavage QD day 0 to day 27; reference I-181 3 mg/kg
Excerpt: To study the effect of a compound on improving NASH and liver fibrosis in an HFD+CCl4 mouse model, with I-181 as a reference compound.
I-181 is an acetyl-CoA carboxylase inhibitor and is currently undergoing a phase II clinical study on non-alcoholic fatty liver disease (NAFLD). The HFD+CCl4 mouse model used in this study is an animal model that simulates human non-alcoholic fatty liver disease evolving into NASH. High-fat diet leads to fat accumulation and steatosis in liver cells; CCl4 (intraperitoneal injection, twice a week) simulates the “second hit” of liver injury.
The modeling for this experiment included two steps: high-fat diet feeding and CCl4 induction. Firstly, the mice were fed with high-fat diet to induce non-alcoholic fatty liver, and the mice weighing more than (>) 38 g were selected and continuously fed with high-fat diet, accompanied by the intraperitoneal injection of 25% CCl4 ([…], twice a week, for a total of four weeks). The day of starting CCl4 administration was set as day 0, and the time of starting CCl4 administration was set as hour 0. On the day of starting CCl4 administration, the administration by gavage was started, and the administration volume of each group was 5 mL/kg, once a day for 4 weeks (28 days). The injection time of CCl4 should be more than 4 hours apart from the first administration time point of the day. […]

**Q.** For COc1ccccc1[C@H](Cn1nc(C(C)(C)C(=O)O)c(=O)c2c(C)c(-c3ncco3)sc21)OC1CCOCC1, which “Stability (light, heat and humidity)” value [1] is on record?
**A.** stable, and less affected by light, heat and humidity

**Q.** With COc1ccccc1[C@H](Cn1nc(C(C)(C)C(=O)O)c(=O)c2c(C)c(-c3ncco3)sc21)OC1CCOCC1 [Compound of formula (I)] as the compound, how does the “Efficacy in NAS” value [2] read?
**A.** the same efficacy as the reference compound at a higher dose

**Q.** And the Efficacy in fibrosis [2]?
**A.** the same efficacy as the reference compound at a higher dose
